One series concerns the target T1, rat ASCT2 (Rattus norvegicus, UniProt D3ZJ25).
T1 construct: The coding region of the cDNA was subcloned into the EcoRI site of the pBK-CMV vector; expressed in transfected cells; host or cells: HEK293 (human embryonic kidney), transient transfection, pBK-CMV vector
T1 sequence (D3ZJ25 1-555): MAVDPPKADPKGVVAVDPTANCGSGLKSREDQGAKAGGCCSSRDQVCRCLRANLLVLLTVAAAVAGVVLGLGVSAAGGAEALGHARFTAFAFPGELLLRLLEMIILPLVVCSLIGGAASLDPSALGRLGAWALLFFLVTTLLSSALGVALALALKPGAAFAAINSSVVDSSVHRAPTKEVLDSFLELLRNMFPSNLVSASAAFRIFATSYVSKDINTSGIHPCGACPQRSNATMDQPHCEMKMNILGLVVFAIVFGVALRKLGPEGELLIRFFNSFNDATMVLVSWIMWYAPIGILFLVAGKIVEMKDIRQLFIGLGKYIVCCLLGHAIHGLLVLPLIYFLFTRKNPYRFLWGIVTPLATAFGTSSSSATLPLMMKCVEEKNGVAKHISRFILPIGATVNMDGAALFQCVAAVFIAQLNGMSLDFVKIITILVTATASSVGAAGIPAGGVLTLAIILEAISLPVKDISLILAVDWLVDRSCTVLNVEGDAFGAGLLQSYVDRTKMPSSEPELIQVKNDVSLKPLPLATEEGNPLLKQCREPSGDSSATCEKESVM
As to the kind of experiment: Whole-cell patch-clamp recording of ASCT2-associated anion current in transfected HEK293 cells. The format is cell-based. Conditions: for Anion current activity: at the maximum concentration tested, 500 μM; for Anion current response / ligand character: whole-cell current, result in words; for Km: apparent Km for the active compounds from anion current dose response, called Ki in text for the inhibitors L-DOPS and γ-FBP; for Imax, maximum currents relative to 1 mM alanine: whole-cell anion current, membrane potential 0 mV, internal 130 mM NaSCN and 10 mM alanine, negative = outward current (inhibitor). The source says:
(§1) We used transporter-mediated anion current as a measure of transport/inhibition activity […] We have previously shown that anion current is a measure of transport activity, due to the kinetic coupling of transport and anion flux, and this fact is also well established for the homologous glutamate transporters, which have a much more rigorously determined pharmacology. Anion current is activated when the transporter visits certain states in the transport cycle, such as the fully Na^+/substrate occupied state (substrate-induced anion conductance), or the Na^+-bound state (leak conductance). Thus, transported substrates induce anion current and non-transported inhibitors block the leak anion current. […] Functional characterization by patch clamping is a powerful approach when combined with virtual screening that prioritizes molecules from large libraries, but precludes screening of large amounts of compounds due to its labor-intensive nature.
cDNA coding for rat ASCT2 was kindly provided by S. Bröer. The coding region of the cDNA was subcloned into the EcoRI site of the pBK-CMV vector (Stratagene). The cDNA construct was used to transiently transfect human embryonic kidney cells (HEK293, ATCC No. CGL 1573) with leptrime reagent (Polyplus, Ilkrich, France). Transfection was performed as detailed in the supplier’s instructions. Electrophysiological recordings were performed 24–48 h after transfection.
ASCT2-associated whole-cell currents were recorded with an Adams & List EPC7 amplifier (HEKA, Lambrecht, Germany) using voltage-clamp conditions. Open-tip electrode resistances were 2–3 MΩ and the series resistance (R S) was 5–8 MΩ. R S was not compensated in the recordings, as compensation had no effect on the magnitude of the observed currents. The extracellular bath solution contained (in mM): 140 NaMES, 2 MgGluconate2, 2 CaGluconate2, and 10 HEPES (MES = methanesulfonic acid, pH 7.4 / NaOH). The pipette solution contained (in mM): 130 NaSCN, 2 MgCl2, 10 EGTA, 10 HEPES, and 10 L-alanine/cysteine (pH 7.3 / NaOH). Using this intracellular solution, the transporters operate in the Na^+/alanine exchange mode. Here, external alanine is exchanged with internal alanine in the absence of net transport. The exchange mode is associated with the activation of an uncoupled anion current, which was used as an indirect measure of transport activity. The currents were low pass filtered at 3 kHz (EPC7 built-in filter) and digitized with a digitizer board (Digidata 1200, Axon Instruments, Foster City, CA, USA) at a sampling rate of 10–50 kHz (controlled by software, Axon PClamp7). All experiments were performed at room temperature. Rapid solution exchange was essentially performed as described previously. Briefly, substrates and inhibitors were applied to the ASCT2-expressing HEK293 cells with a quartz tube (350 μm tube diameter) positioned at a distance of ≈0.5 mm to the cell. The linear flow rate of the solutions emerging from the opening of the tube was approximately 5–10 cm/s.
Background: The patch-clamp technique gives a direct electrical read-out from membranes.

The nature of a further series: Solubility in water. The class given is physicochemical. Conditions: required 5% DMSO at concentrations higher than 1 mM.
The target of a further series is T2, ASCT2 (Rattus norvegicus, UniProt D3ZJ25).
T2 construct: expressed in transfected cells
T2 sequence (D3ZJ25 1-555): T1 sequence (D3ZJ25 1-555)
Description: Voltage-jump exchange-mediated transient transport current in ASCT2-expressing cells. The format is cell-based. Conditions: benzylserine 5 mM (S2 Fig).
Source text: as §1
Supplementary file pcbi.1004477.s002.pdf: S2 Fig Exchange current is mediated by a transported substrate, but not by a non-transported inhibitor. Voltage jumps induce transport-mediated exchange current (due to voltage-dependent re-equilibration of the translocation equilibrium) in the presence of the transported substrate alanine (1 mM, black trace), but not in the presence of the non-transported inhibitor benzylserine (5 mM, red trace). […]

The target in series [1] is T3, ASCT2 mediated glutamine uptake in C8161 melanoma cells (Homo sapiens, UniProt Q15758).
T3 construct: C8161 cells (1 × 10^5/well) were incubated with [^3H]-L-glutamine; endogenous in cells; host or cells: C8161 human melanoma cell line
T3 sequence (Q15758 1-541): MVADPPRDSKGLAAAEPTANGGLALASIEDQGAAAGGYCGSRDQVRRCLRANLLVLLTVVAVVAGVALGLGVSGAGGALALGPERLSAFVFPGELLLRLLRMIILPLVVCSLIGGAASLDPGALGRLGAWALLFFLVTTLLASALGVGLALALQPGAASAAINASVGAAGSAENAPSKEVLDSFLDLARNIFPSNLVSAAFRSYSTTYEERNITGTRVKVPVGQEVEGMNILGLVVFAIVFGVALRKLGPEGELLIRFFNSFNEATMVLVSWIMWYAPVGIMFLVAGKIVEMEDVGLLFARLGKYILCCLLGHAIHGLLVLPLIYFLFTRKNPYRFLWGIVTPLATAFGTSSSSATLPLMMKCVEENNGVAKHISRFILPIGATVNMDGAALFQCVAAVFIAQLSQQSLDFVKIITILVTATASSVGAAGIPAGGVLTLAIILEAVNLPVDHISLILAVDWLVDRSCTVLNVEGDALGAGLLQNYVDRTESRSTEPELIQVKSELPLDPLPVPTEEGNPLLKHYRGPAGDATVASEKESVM
Also on record: method as in PMID 24531984. Conditions: cited from earlier work.

As usually defined, the Km is the substrate concentration at which the rate is half of its maximum. As usually defined, the IC50 is the point on the concentration scale where inhibition reaches its midpoint.

The structures appear in SMILES notation. Where “and” joins values, the source holds several entries; their conditions need not be identical. Identical values can stand only once.

As to `Cc1ccc2[nH]c(C(=O)O)c(CN(C)Cc3ncc[nH]3)c2c1` [3-{[(1H-imidazol-2-ylmethyl)(methyl)amino]methyl}-5-methyl-1H-indole-2-carboxylic acid], the Anion current activity entry at rat ASCT2 was “inactive”. Moreover, the Solubility in water result in the series “Solubility in water” is on record as “poorly soluble in water”.
For `O=C(O)C1CC(OCc2ccccc2)CN1` (stereo not shown) [4-hydroxyproline-benzylether], the “Anion current response / ligand character” value at rat ASCT2 is “not significantly different from zero”.
Consider `CC(C)(N)C(=O)O` [AIB], for which the Anion current response entry at rat ASCT2 (at concentrations up to 5 mM) is on record as “did not elicit any significant response”.
As for `N[C@H](C(=O)O)[C@@H]1CC(Cl)=NO1` [Acivicin, reference compound], on rat ASCT2, the Km stood at 5100 ± 1500 µM and the “Imax, maximum currents relative to 1 mM alanine” value stood at 0.45 ± 0.03.
The like results for `C[C@H](N)C(=O)O` [Alanine] were, in that order, 410 ± 20 µM and 1.
Take `N[C@H](C(=O)O)[C@H](O)c1ccc(O)c(O)c1` [L-DOPS, reference compound]: on rat ASCT2, the Km is 1950 ± 900 µM; the “Imax, maximum currents relative to 1 mM alanine” value is given as -0.03 ± 0.01; the “Anion current response / ligand character” value is given as “weak inhibitor”. For the same molecule, the Ki at rat ASCT2 (apparent affinity, inhibition of leak anion conductance, read-out: Ki) was ~2 mM. Besides, on rat ASCT2 (at concentrations up to 5 mM), the “Inhibition of alanine-induced responses” value is on record as “unable to significantly inhibit alanine-induced responses”.
Regarding `O=C(O)[C@H](Cc1c[nH]c2ccccc12)NCCc1ccccc1` [N-(2-phenylethyl)tryptophan], the Anion current activity result on rat ASCT2 was “inactive”. For the same molecule, the Solubility in water result in the series “Solubility in water” is “poorly soluble in water”.
On to `CC(C)(S)[C@@H](N)C(=O)O` [Penicillamine, reference compound], for which, on rat ASCT2, the Km worked out at 1370 ± 680 µM; the “Imax, maximum currents relative to 1 mM alanine” value is 0.68 ± 0.08; the “Anion current response / ligand character” value is recorded as “activated inwardly-directed anion currents”.
On to `N[C@@H](COCc1ccccc1)C(=O)O` [benzylserine], for which the “Exchange-mediated transient transport currents upon voltage jumps” value on ASCT2 is on record as “unable to elicit exchange-mediated transient transport currents”. In addition, the IC50 in series [1] is 5.3 mM.
`O=C(O)[C@H]1NCC[C@H]1O` [cis-3-hydroxyproline]: on rat ASCT2, the Km worked out at 19 ± 10 µM; the “Imax, maximum currents relative to 1 mM alanine” value is 1.39 and 1.39 ± 0.1; the “Anion current response / ligand character” value is “activated inwardly-directed anion currents”.
With `O=C(O)[C@@H]1CCCN1` [proline, reference compound], the “Anion current response / ligand character” value on rat ASCT2 is recorded as “not an ASCT2 ligand”.
In the case of `O=C(O)C1NCCS1` (stereo not shown) [thiazolidine-2-carboxylate], on rat ASCT2 (at concentrations up to 5 mM), the Anion current response entry is given as “did not elicit any significant response”.

The values are drawn from article PMC4596572, “Ligand Discovery for the Alanine-Serine-Cysteine Transporter (ASCT2, SLC1A5) from Homology Modeling and Virtual Screening” (PLoS Computational Biology, 2015).
